# From US20230165242A1, “RODENTICIDAL BAIT AND METHOD OF CONTROLLING TARGET HARMFUL RODENTS” (priority 2020, published 2023)
# Experiments:
# Assay type in all cases: in vivo, rat
# [1] = test system: warfarin-sensitive male OFA-Sprague-Dawley rats; experiment: Prothrombin level, Quick's time (bromadiolone / cholecalciferol gavage)
# Description: Warfarin-sensitive male OFA-Sprague-Dawley rats (Charles River, L′Arbresles, France) are fed by gavage for 3 consecutive days with a gavage solution containing bromadiolone (LIPHATECH, France) and cholecalciferol (Sigma-Aldrich, France) in a solvent consisting of 95% (v/v) of oil and 5% (v/v) of DMSO. During this period of gavage, the rats are fed with a conventional solid feed and water in unlimited amounts. The concentrations of bromadiolone and cholecalciferol in the gavage solution are 0.1 g/kg (100 ppm) and 7.5 g/kg (7500 ppm) respectively. Each rat receives daily a volume of gavage solution calculated to correspond to 1 mL of gavage solution per kilogram of body weight. The OFA-Sprague-Dawley rats in two control groups are fed by gavage in the same conditions with gavage solutions containing bromadiolone (alone) at a concentration of 100 ppm or cholecalciferol (alone) at a concentration of 7500 ppm, respectively. 24 hours after the last gavage, a volume of blood is taken from each rat by intracardiac puncture and placed in a specimen tube containing sodium citrate. The animals are euthanized after puncture and the plasma is prepared by centrifugation. Quick's time (or clotting time) is evaluated on the plasma supplemented with sodium citrate, then decalcified and recalcified in the presence of calcium thromboplastin. Quick's time is evaluated by means of an optical device for clotting analysis (Option 2plus, Bio Mèrieux®). The results are presented [FIG. 2]. The average Quick's time measured on the plasma from the rats fed by gavage with bromadiolone (bar “B”) is 12.4 seconds (±1.8), the average Quick's time measured on the plasma from the rats fed by gavage with cholecalciferol (bar “C”) is 12.4 seconds (±0.9) and the average Quick's time measured on the plasma from the rats fed by gavage with the composition comprising bromadiolone and cholecalciferol (bar “D”) is 14.1 seconds (±2.7). The differences in values of Quick's time measured between the three groups of rats are not significant. The rats in the group of rats that received the combination of bromadiolone and cholecalciferol coagulate in the same way as the rats in the group of rats that received the gavage solution containing bromadiolone on the one hand and the rats in the group of rats that received the gavage solution containing cholecalciferol on the other hand. Quick's time for rats treated with a control solution formed from oil (95%, v/v) and DMSO (5%, v/v) is (bar “A”) 12.8 seconds (±2.3). Neither the gavage solution containing bromadiolone in combination with cholecalciferol, nor the gavage solution containing bromadiolone alone, nor the gavage solution containing cholecalciferol induces an increase of Quick's time relative to the control. […]
# [2] = test system: Female Sprague-Dawley rats that are homozygotic carriers of the Y139F mutation in the Vkorc1 gene; experiment: Synergy of difethialone and cholecalciferol on warfarin-resistant female Sprague-Dawley Y139F rats; details: gavage once a day for 3 days; difethialone 0.125 mg/kg alone, cholecalciferol 7.5 mg/kg alone, or both combined; 22 days of observation
# Description: Female Sprague-Dawley rats that are homozygotic carriers of the Y139F mutation in the Vkorc1 gene, aged 10 weeks, are acclimatized for 5 days in the presence of a conventional solid feed and water in unlimited amounts. These female Sprague-Dawley Y139F rats are fed by gavage once a day for 3 consecutive days with a gavage solution containing difethialone (LIPHATECH, France) and cholecalciferol (Sigma-Aldrich, France) in a solvent consisting of 95% (v/v) of oil and 5% (v/v) of DMSO. During this period of gavage, the rats are fed with a conventional solid feed and water in unlimited amounts. The amounts of difethialone and cholecalciferol administered are 0.125 mg per kilogram of body weight of the rat fed by gavage and 7.5 mg per kilogram of body weight of the rat fed by gavage, respectively. The rats in two control groups, each consisting of OFA-Sprague-Dawley […] rats, are fed by gavage in the same conditions with gavage solutions containing, respectively, difethialone alone so as to administer an amount of difethialone corresponding to 0.125 mg per kilogram of body weight of the rat fed by gavage and cholecalciferol alone so as to administer an amount of cholecalciferol corresponding to 7.5 mg per kilogram of body weight of the rat fed by gavage. The percentage of rats surviving gavage is noted daily for 21 days counting from the first day of gavage. […]
# [3] = test system: Warfarin-sensitive Sprague-Dawley rats; experiment: Relative toxicity of cholecalciferol, single gavage dose, “SD” rats; details: single gavage dose 30 mg/kg; 20 days
# Description: Warfarin-sensitive Sprague-Dawley rats (20 male rats and 20 female rats), male and female rats that are homozygotic carriers of the L120Q mutation, male and female Sprague-Dawley rats that are homozygotic carriers of the Y139F mutation and male and female brown rats (Rattus norvegicus) that are homozygotic carriers of the Y1 39C mutation are acclimatized for 5 days in the presence of a conventional solid feed and water in unlimited amounts. The rats are fed by gavage with a single dose of a gavage solution containing cholecalciferol (Sigma-Aldrich, France) in a solvent consisting of 95% (v/v) of oil and 5% (v/v) of DMSO. The rats are fed with a conventional solid feed and water in unlimited amounts. The amount of cholecalciferol administered is 30 mg of cholecalciferol per kilogram of body weight of the rat fed by gavage. The percentage of rats surviving gavage for 20 days, counting from the first day of gavage, is noted daily. The results given in Table 4 hereunder describe the mortality observed (“SD”, Sprague-Dawley). The amount of cholecalciferol ingested by the rodents during gavage corresponds to consumption by these rodents of a bait assayed at 300 ppm of cholecalciferol.
smiles,measurement,setting,value
C=C1CC[C@H](O)C/C1=C/C=C1\CCC[C@]2(C)[C@@H]([C@H](C)CCCC(C)C)CC[C@@H]12 [cholecalciferol],anticoagulant effect (increase of Quick's time relative to the control),"[1]; 3 daily gavages, bromadiolone 100 ppm and/or cholecalciferol 7500 ppm solution, 1 mL/kg",not anticoagulants
same,average Quick's time (clotting time),"[1]; plasma 24 hours after last of 3 daily gavages, 1 mL/kg of solution with bromadiolone 100 ppm and/or cholecalciferol 7500 ppm",12.4 s
same,percentage of rats surviving,[2],90%
same,"Female mortality, %",[3],30%
same,"Male mortality, %",[3],10%
